Results from PubChem BioAssay AID328 (DTP/NCI, 2004).
Values joined by “and” are separate entries in the source; they are usually repeats but may differ in a detail not shown here. Identical values can stand only once. Inconclusive results and toxic doses are left out. The calls were made as follows: active = survival T/C of 150% or more; inactive = T/C below 125% in these data.

Tested on: BDF1 mice, P388 leukemia ip, median survival T/C
Experiment: NCI In Vivo Anticancer Drug Screen. Data for tumor model P388 Leukemia (intraperitoneal) in B6D2F1 (BDF1) mice
Settings: endpoint: median survival time, higher = longer survival
Method in brief: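 T/C = treated-group survival ÷ vehicle-control survival; tumour transplanted into mice before dosing.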

[1] = dose: 100.0 mg/kg/injection, schedule: Q04DX002 (ip), vehicle: saline with Tween-80
[2] = dose: 200.0 mg/kg/injection, schedule: Q04DX002 (ip), vehicle: saline with Tween-80
[3] = dose: 400.0 mg/kg/injection, schedule: Q04DX002 (ip), vehicle: saline with Tween-80
[4] = dose: 100.0 mg/kg/injection, schedule: Q01DX009 (ip), vehicle: saline with Tween-80
[5] = dose: 100.0 mg/kg/injection, schedule: Q04DX003 (ip), vehicle: saline with Tween-80
[6] = dose: 200.0 mg/kg/injection, schedule: Q01DX009 (ip), vehicle: saline with Tween-80
[7] = dose: 200.0 mg/kg/injection, schedule: Q04DX003 (ip), vehicle: saline with Tween-80
[8] = dose: 400.0 mg/kg/injection, schedule: Q04DX003 (ip), vehicle: saline with Tween-80
[9] = dose: 6.25 mg/kg/injection, schedule: Q01DX009 (ip), vehicle: saline
[10] = dose: 12.5 mg/kg/injection, schedule: Q01DX009 (ip), vehicle: saline
[11] = dose: 100.0 mg/kg/injection, schedule: Q01DX001 (ip), vehicle: saline sonified
[12] = dose: 200.0 mg/kg/injection, schedule: Q01DX001 (ip), vehicle: saline sonified
[13] = dose: 400.0 mg/kg/injection, schedule: Q01DX001 (ip), vehicle: saline sonified
[14] = dose: 5.0 mg/kg/injection, schedule: Q04DX003 (ip), vehicle: saline with Tween-80
[15] = dose: 10.0 mg/kg/injection, schedule: Q04DX003 (ip), vehicle: saline with Tween-80
[16] = dose: 20.0 mg/kg/injection, schedule: Q04DX003 (ip), vehicle: saline with Tween-80
[17] = dose: 6.25 mg/kg/injection, schedule: Q01DX009 (ip), vehicle: saline with Tween-80
[18] = dose: 25.0 mg/kg/injection, schedule: Q01DX009 (ip), vehicle: saline with Tween-80
[19] = dose: 50.0 mg/kg/injection, schedule: Q01DX009 (ip), vehicle: saline with Tween-80
[20] = dose: 100.0 mg/kg/injection, schedule: Q04DX003 (ip), vehicle: Klucel (hydroxypropylcellulose) (HPC)
[21] = dose: 200.0 mg/kg/injection, schedule: Q04DX003 (ip), vehicle: Klucel (hydroxypropylcellulose) (HPC)
[22] = dose: 400.0 mg/kg/injection, schedule: Q04DX003 (ip), vehicle: Klucel (hydroxypropylcellulose) (HPC)
[23] = dose: 25.0 mg/kg/injection, schedule: Q01DX009 (ip), vehicle: saline

Measured: T/C

CN(C)c1ccc(-c2nc3c(=O)n(C)c(=O)n(C)c3nc2-c2ccc(N(C)C)cc2)cc1
inactive: [1] 106 % of control | [2] 111 % of control | [3] 116 % of control

CC(C)C1=CC2=CC[C@@H]3[C@](C)(CCC[C@@]3(C)C(=O)O)[C@H]2CC1
inactive: [4] 100 % of control | [5] 100 % of control | [6] 100 % of control | [7] 100 % of control | dose: 400.0 mg/kg/injection, schedule: Q01DX009 (ip), vehicle: saline with Tween-80 100 % of control | [8] 100 % of control

CCN(CC)C(N)=Nc1ccc(NC(=O)c2ccc(C(=O)Nc3ccc(N=C(N)N(CC)CC)cc3)cc2)cc1
inactive: [10] 105 % of control
active: dose: 3.12 mg/kg/injection, schedule: Q01DX009 (ip), vehicle: saline 151 % of control | [9] 196 % of control

O=C1CCCCC1Oc1ccccc1 (stereo unspecified)
inactive: [4] 95 % of control | [5] 95 % of control | [6] 91 % of control | [7] 100 % of control | [8] 100 % of control

CCCCCCCCCC(=O)NO
inactive: [11] 100 % of control | [12] 100 % of control | [13] 100 % of control

CCC(CC)OCCN1CCN(CCCN2c3ccccc3Sc3ccc(C(F)(F)F)cc32)CC1
inactive: [14] 103 % of control and 104 % of control | [15] 108 % of control and 116 % of control | [16] 122 % of control

Cc1cc(C)nc(NN)n1
inactive: [17] 98 % of control | dose: 12.5 mg/kg/injection, schedule: Q01DX009 (ip), vehicle: saline with Tween-80 96 % of control | [18] 101 % of control | [19] 102 % of control

CCCOC(=O)C(F)C(Br)C(=O)OCCC (stereo unspecified)
inactive: [19] 89 % of control | [4] 99 % of control | [6] 118 % of control

CS(=O)(=O)/C=C(\c1ccccc1)c1cccs1
inactive: [19] 114 % of control | [4] 100 % of control | [6] 96 % of control

C#C/C=C/CC1O/C(=C(\Br)CC)C/C=C\CC1Cl (stereo unspecified)
inactive: dose: 12.5 mg/kg/injection, schedule: Q01DX009 (ip), vehicle: other 99 % of control | dose: 25.0 mg/kg/injection, schedule: Q01DX009 (ip), vehicle: other 114 % of control | dose: 50.0 mg/kg/injection, schedule: Q01DX009 (ip), vehicle: other 99 % of control

OC(Cc1cnc2ccccc2c1)(c1ccccc1)c1ccccc1
inactive: dose: 25.0 mg/kg/injection, schedule: Q04DX002 (ip), vehicle: saline with Tween-80 98 % of control and 103 % of control | dose: 50.0 mg/kg/injection, schedule: Q04DX002 (ip), vehicle: saline with Tween-80 99 % of control and 117 % of control | [1] 98 % of control and 103 % of control | [2] 94 % of control and 99 % of control and 100 % of control | [3] 98 % of control

COC(=O)c1ccc(Cl)c(Cl)c1
inactive: [18] 101 % of control | dose: 25.0 mg/kg/injection, schedule: Q04DX003 (ip), vehicle: saline with Tween-80 102 % of control | [19] 116 % of control | dose: 50.0 mg/kg/injection, schedule: Q04DX003 (ip), vehicle: saline with Tween-80 94 % of control and 100 % of control and 108 % of control | [5] 97 % of control and 98 % of control and 103 % of control | dose: 150.0 mg/kg/injection, schedule: Q04DX003 (ip), vehicle: saline with Tween-80 98 % of control | [7] 108 % of control and 112 % of control | dose: 300.0 mg/kg/injection, schedule: Q04DX003 (ip), vehicle: saline with Tween-80 110 % of control | [8] 107 % of control

C=C[C@@](C)(O)CC/C=C(/C)CCC=C(C)C
inactive: [4] 109 % of control

CC1=CC(OC2CCCCO2)C2CC1C2(C)C (stereo unspecified)
inactive: [20] 112 % of control | [21] 112 % of control | [22] 104 % of control

Cc1cc(C)c(CN)cc1C
inactive: [14] 100 % of control | [15] 100 % of control | [16] 100 % of control

O=[N+]([O-])c1ccc(S(=O)(=O)Nc2ccccc2-c2ccccc2)cc1
inactive: [5] 96 % of control | [7] 96 % of control | [8] 100 % of control

CC(=O)c1ccc(F)c(C)c1
inactive: [11] 105 % of control | [12] 110 % of control | [13] 105 % of control

CC(=O)Nc1cc(C(=O)O)cc(C(F)(F)F)c1
inactive: [5] 115 % of control | [7] 105 % of control | [8] 95 % of control

N#Cc1ccc(-c2ccc(C#N)cc2Br)c(Br)c1
inactive: dose: 22.0 mg/kg/injection, schedule: Q01DX009 (ip), vehicle: Klucel (hydroxypropylcellulose) (HPC) 92 % of control | dose: 25.0 mg/kg/injection, schedule: Q01DX009 (ip), vehicle: Klucel (hydroxypropylcellulose) (HPC) 110 % of control | dose: 33.0 mg/kg/injection, schedule: Q01DX009 (ip), vehicle: Klucel (hydroxypropylcellulose) (HPC) 95 % of control | dose: 50.0 mg/kg/injection, schedule: Q01DX009 (ip), vehicle: Klucel (hydroxypropylcellulose) (HPC) 100 % of control | dose: 75.0 mg/kg/injection, schedule: Q01DX009 (ip), vehicle: Klucel (hydroxypropylcellulose) (HPC) 89 % of control | dose: 100.0 mg/kg/injection, schedule: Q01DX009 (ip), vehicle: Klucel (hydroxypropylcellulose) (HPC) 88 % of control and 110 % of control | [20] 95 % of control | [21] 100 % of control | [22] 100 % of control

CCC1NC(C)(C)CC1=C(C)C (stereo unspecified)
inactive: dose: 1.56 mg/kg/injection, schedule: Q01DX009 (ip), vehicle: saline 104 % of control | dose: 3.13 mg/kg/injection, schedule: Q01DX009 (ip), vehicle: saline 104 % of control | [9] 104 % of control

NCCC(O)C(=O)NC1CC(N)C(OC2OC(CO)C(O)C(O)C2N)C(OC2OC(CO)C(O)C2O)C1O (stereo unspecified)
inactive: [10] 109 % of control | [23] 109 % of control | dose: 50.0 mg/kg/injection, schedule: Q01DX009 (ip), vehicle: saline 100 % of control

Cc1c(C/C(=N/O)C(=O)O)[nH]c(=S)[nH]c1=O
inactive: [5] 100 % of control | [7] 87 % of control | [8] 100 % of control

ClC1=C(Cl)C(Cl)(C2(Cl)C(Cl)=C(Cl)C(Cl)=C2Cl)C(Cl)=C1Cl
inactive: dose: 100.0 mg/kg/injection, schedule: Q01DX009 (ip), vehicle: gum acacia 123 % of control | dose: 100.0 mg/kg/injection, schedule: Q04DX003 (ip), vehicle: gum acacia 108 % of control | dose: 200.0 mg/kg/injection, schedule: Q04DX003 (ip), vehicle: gum acacia 116 % of control | dose: 400.0 mg/kg/injection, schedule: Q04DX003 (ip), vehicle: gum acacia 104 % of control

CCOC(=O)CCN1CCOCC1
inactive: dose: 100.0 mg/kg/injection, schedule: Q01DX009 (ip), vehicle: saline 100 % of control | dose: 100.0 mg/kg/injection, schedule: Q04DX003 (ip), vehicle: saline 95 % of control | dose: 200.0 mg/kg/injection, schedule: Q01DX009 (ip), vehicle: saline 100 % of control | dose: 200.0 mg/kg/injection, schedule: Q04DX003 (ip), vehicle: saline 100 % of control | dose: 400.0 mg/kg/injection, schedule: Q01DX009 (ip), vehicle: saline 100 % of control | dose: 400.0 mg/kg/injection, schedule: Q04DX003 (ip), vehicle: saline 108 % of control

O=C1c2c(O)ccc([N+](=O)[O-])c2C(=O)c2c([N+](=O)[O-])ccc(O)c21
inactive: [20] 118 % of control | [21] 122 % of control | [22] 113 % of control

c1ccc(C[n+]2ccc3ccccc3c2)cc1
inactive: [9] 100 % of control | [10] 90 % of control | dose: 12.5 mg/kg/injection, schedule: Q04DX003 (ip), vehicle: saline 95 % of control | [23] 118 % of control | dose: 25.0 mg/kg/injection, schedule: Q04DX003 (ip), vehicle: saline 100 % of control

COc1ccc2[nH]c3c(C)c4cc[n+](C)cc4c(C)c3c2c1
inactive: [17] 99 % of control

C[Si](C)(C)O[Si](C)(C)c1ccccc1
inactive: dose: 100.0 mg/kg/injection, schedule: Q01DX001 (ip), vehicle: saline 104 % of control | dose: 200.0 mg/kg/injection, schedule: Q01DX001 (ip), vehicle: saline 95 % of control | dose: 400.0 mg/kg/injection, schedule: Q01DX001 (ip), vehicle: saline 95 % of control
